In US9717732B2, “Drug combination” (VERONA PHARMA PLC, priority 2013, dated 2017):

Assays:
[1] = system: human isolated bronchial tissues pre-contracted with acetylcholine; test: Relaxation of human isolated bronchi pre-contracted with acetylcholine (EC70), drugs alone and in combination, synergy analysis; settings: n=5; for slope (nH): 4 parameter logistic fit
Method: Bronchial rings were mounted on hooks in the organ baths where one hook was attached with threaded to a stationary rod and the other hook tied with thread to an isometric force displacement transducer. […] Tallarida, 2001; Goldoni and Johansson, 2007; Boik et al., 2008; Lee, 2010). […] Goodman et al., 2008). E/Emax was expressed as percentage of Emax elicited by the contractile agents; […] The analysis of the potential synergism between RPL554 plus a β2-adrenergic receptor agonist was measured by applying the Berenbaum method, the Bliss Independence (BI) criterion and the Loewe Additivity (LA) model through curved isoboles (Berenbaum, 1977; Greco et al., 1995; Grabovsky and Tallarida, 2004; Tallarida, 2006; Goldoni and Johansson, 2007; Tallarida and Raffa, 2010). […] Lee, 2010). The BI theory for two agents is expressed by the following equation: E(x,y)=Ex+Ey-(Ex*Ey), where E is the fractional effect, and x and y are the concentrations of two compounds in a combination experiment. If the combination effect is higher than the expected value from the above equation, the interaction is considered synergistic, while if this effect is lower, the interaction is antagonistic. […] In this study, the BI equation was characterized by X=RPL554 and Y=β2-adrenergic receptor agonist. […] Using the concept of dose equivalence, the relationship a/A+b/B=1 was reformulated as b+beq (a)=B, where beq is the dose equivalent of a and solving for beq(a) by equating the two individual concentration response curves EA=f(A) and EB=f(B). The additive response (Eab) for each dose combination with respect to B was then calculated by insertion of B into EB=f(B). The difference between the observed relaxation response to the combination doses and the additive response was calculated and analysed using a one sample t-test and for multiple comparisons, the probability was adjusted for multiple comparisons using a Bonferroni correction. For illustrative purposes, the 1:1 dose combinations were analysed for synergy. […] Then, concentration response curves were constructed to test individual compound RPL554, or salbutamol alone; or RPL554 administered in combination with salbutamol in order to produce isobolar graphs (salbutamol:RPL554 and ranging from 10:1 to 1:100) as described elsewhere (Greco et al., 1995; Tallarida, 2001; Goldoni and Johansson, 2007; Boik et al., 2008; Lee, 2010).

[2] = system: guinea pig airways; test: Reversal of bombesin-induced airways obstruction (total lung resistance); assay type: in vivo; settings: salbutamol 20 μg/kg alone
Method: (§1) Guinea pigs were anaesthetized and ventilated. Airway obstruction was induced by the intravenous administration of bombesin (2 μg/ml; 5 ml/hr). Bronchodilation was induced by the iv. administration of RPL554 alone at various doses, or in combination with sub maximal dose of salbutamol (20 μg/kg). Doses were selected following studies generating a dose-response curve for both salbutamol to select a dose resulting in approximately 20% reduction in airways obstruction. Total lung resistance (RL) and mean arterial blood pressure were measured. Data are expressed as % reduction in airways obstruction or blood pressure.

[3] = system: anaesthetized rats; test: Cardiovascular interaction (safety) study, blood pressure and heart rate, i.v. bolus; assay type: in vivo, rat
Source text: This study was undertaken to determine whether RPL554 has cardiovascular interactions with a β2-adrenergic receptor agonist (salbutamol). A muscarinic receptor antagonist (atropine) was included for completeness. RPL554 is a dual PDE3/PDE4 inhibitor being developed for treatment of chronic obstructive pulmonary disease (COPD) and asthma as an inhaled bronchodilator with possible anti-inflammatory actions. […] The study design was blind and random with drugs given as pairs five minutes apart in an alternating manner, e.g., RPL554 followed by salbutamol and vice versa. […] Instead they were chosen to test for possible interactions under supra therapeutic conditions.
Doses producing a 15-30 mmHg increase in mean blood pressure (MBP) and 30-60 beats per minute increase in heart rate (HR) were chosen from an initial dose-response study for RPL554 and salbutamol. […] Thereafter, the chosen doses were examined in pairs administered 5 minutes part. […] The intention of the study was to use supra normal conditions in order to challenge for possible interactions under supra therapeutic conditions.
The studies were performed on Sprague-Dawley male rats from Charles River weighing 200-250 grms. […] For the purposes of the experiment the animals were anaesthetized with thiobutabarbital at a dose of 100 mg/kg given by the i.p. route. There was no necessity for supplemental anaesthesia and at the end of the experimental period each rat was sacrificed. The study had two parts: (I) an initial dose ranging study and (II) the interaction study. The drugs studied were: RPL554 (R), salbutamol (S), atropine (A) all dissolved in saline.
An initial dose-ranging study was performed as follows: cumulative dose-response curves for intravenous bolus doses of the three drugs were performed to determine appropriate doses of each of the three drugs for the full study. Doses of RPL554 or salbutamol producing a 15-30 mmHg increase in mean blood pressure (MBP) and 30-60 beats per minute increase in heart rate (HR) were chosen from this initial dose-response study. […] This dose-ranging study involved four rats in which cumulative doses of each of the 3 drugs were given on a dose-doubling basis. Doses of each of the drugs were given as i.v. bolus injections every 5 minutes with 1 hour between different drugs. The order of injections were: for animal 1—S, R, A; animal 2—R, A, S; animal 3—A, S, R and animal 4—R, A, S. As indicated above the doses and routes of injection where chosen as supernormal and above doses producing effects when given by inhalation.
In this study all drugs were given as a single dose by i.v. bolus injection, via a jugular vein cannula, and at a volume of 1 mL/kg. The study design was blind and random with three lines each containing four animals for a total of 12 animals.
Pairs of drugs were given to individual animals on a randomized blind basis using a line by line design where each line contained four rats with injections as follows: R1S2, S1R2, R1A2 and A1R2 (in random order where 1 indicates the first drug given and 2 indicates the second drug given 5 minutes after the first drug). A total of 3 lines were studied thus a total of 12 rats were used and none of the animals had to be replaced.

[4] = system: Guinea pigs; test: Reduction in mean arterial blood pressure after iv. administration; assay type: in vivo, guinea pig; settings: 20 μg/kg RPL554 iv., control (alone)
Method: as §1

[5] = system: human isolated bronchial preparations; test: Inhibition of EFS-induced contraction of human isolated bronchi; settings: after termination of drug exposure
Method: Regions of macroscopically normal lungs were taken from uninvolved areas resected from 24 subjects (11 male and 13 female, 60.1±1.6 years old) undergoing lobectomy surgery for lung cancer, but without a history of chronic airway disease.
Airways were immediately placed into oxygenated Krebs-Henseleit buffer solution (KH) (mM: NaCl 119.0, KCl 5.4, CaCl2 2.5, KH2PO41.2, MgSO4 1.2, NaHCO3 25.0, glucose 11.7; pH 7.4) containing the cyclooxygenase (COX) inhibitor indomethacin (5.0 μM), and transported at 4° C. from the “Regina Elena National Cancer Institute” or the “Sant'Andrea Hospital” to the Respiratory Research Laboratory in the Surgery and Medicine Faculty of “Tor Vergata University”, Rome, Italy. None of the subjects were chronically treated with theophylline, β2-agonists or glucocorticosteroids. Serum IgE levels determined on the day of surgery were in the normal range. […]
Human bronchi were placed in organ baths containing KH buffer solution (37° C.) medicated with indomethacin (5.0 μM), bubbled with 95% O2/5% CO2 and suspended under passive tension (0.5-1.0 g). […] Changes in isometric tension were measured with a transducer (Fort 10 WPI, Basile, Instruments, Italy) and the tissue responsiveness was assessed by acetylcholine (100 μM); when the response reached a plateau, rings were washed three times and allowed to equilibrate for 45 min. […]

[6] = system: passively sensitized human isolated bronchi; test: Contraction induced by histamine in passively sensitized human bronchi; settings: RPL554 100 μM
Method: Human isolated bronchial rings were rotated overnight at room temperature in tubes containing KH buffer solution in the absence (non-sensitized control rings) or the presence of 10% vol^−1 sensitizing serum (sensitized rings) as described elsewhere (Watson et al., 1997; Rabe, 1998). Subjects suffering from atopic asthma (total IgE>250 U^−1 specific against common aeroallergens) during exacerbation provided signed consent for serum donation.
Sera was prepared by centrifugation of whole blood and sera samples were frozen at −80° C. in 200 ml aliquots until required.
The next morning, after removal of adhering alveolar and connective tissues, bronchial rings were transferred into an organ bath containing KH buffer (37° C.) and continuously gassed with a 95% O2/5% CO2. Tissues were pre-incubated for 30 min with RPL554 (1, 10 and 100 μM) and then followed (without washing) by the construction of concentration responses curve to histamine (10 nM-1 mM) in the presence of RPL554.
Appropriate curve-fitting to a sigmoidal model was used to calculate the effect (E), the Emax and the concentration required to cause a 50% maximal effect (EC50). The equation used was log [agonist] vs. response, Variable slope, expressed as Y=Bottom+(Top−Bottom)/{1+10^[(Log EC50−X)*HillSlope]} (Motulsky and Christopoulos, 2004; Goodman et al., 2008). […]

Structure (SMILES)	EC50 ([1]; Homo sapiens, geomean (95% CI), acetylcholine EC70, read-out: potency (EC50), relaxation) [nM]	Emax ([1]; Homo sapiens, mean±SD, acetylcholine EC70, percentage of papaverine (500 μM) induced relaxation) [%]	slope (nH) ([1]; mean±SD)	reduction in airways obstruction [2] [%]	Time to peak response, blood pressure [3]	Time to peak response, heart rate [3] [min]	reduction in mean arterial blood pressure [4] [%]	Duration of inhibition of EFS contractile response after exposure to drug [5]	Effect on contraction induced by histamine [6]
CC(C)(C)NCC(O)c1ccc(O)c(CO)c1 (centres unmarked) [salbutamol]	283	78 ± 11	1.572±0.482	34.2±11.1	approximately 20 seconds	~1	–	–	–
CN1[C@@H]2CC[C@H]1C[C@@H](OC(=O)C(CO)c1ccccc1)C2 (some centres unmarked) [atropine]	–	–	–	–	4 min	4	–	–	–
COc1cc2c(cc1OC)-c1cc(=Nc3c(C)cc(C)cc3C)n(CCNC(N)=O)c(=O)n1CC2 [RPL554, 9,10-Dimethoxy-2-(2,4,6-trimethylphenylimino)-3-(N-carbamoyl-2-aminoethyl)-3,4,6,7-tetrahydro-2H-pyrimido[6,1-a]isoquinolin-4-one]	–	–	2.271±0.713	–	1 to 1.33 min	2 to 4.5	37.3±6.7	at least 5 h	completely abolished the contraction induced by histamine
